In US20250026848A1, “IDENTIFICATION OF PATHOGENIC IMMUNE CELL SUBSETS IN CHECKPOINT INHIBITOR-INDUCED MYOCARDITIS” (U.S. GOVERNMENT AS REPRESENTED BY THE DEPARTMENT OF …, priority 2021, published 2025):

Test system: ICI myocarditis
Assay: Longitudinal follow-up of one ICI myocarditis patient (MCE1) treated with glucocorticoids: cardiac biomarker troponin I
Type: in vivo, human
Details: one patient with MRI-confirmed ICI myocarditis; 60 mg/day from first day of diagnosis, four-week steroid taper
Description: In order to evaluate the time evolution of clonally-expanded T-cells in ICI myocarditis, we longitudinally analyzed PBMCs from one patient with MRI-confirmed myocarditis at early (t=0 days) and late (t=65 days) timepoints (FIG. 5A). This patient received glucocorticoids (60 mg/day of prednisone) for treatment of their myocarditis on the first day of their diagnosis (after blood collection) and underwent a successful four-week steroid taper with resolution of their cardiac biomarkers (troponin I, measured in ng/ml) by day 25. […] Due to the availability of early and late myocarditis blood samples, our study also provides new insight into the time-course of cellular and molecular changes that occur throughout the onset and resolution of ICI myocarditis. ICI myocarditis has a notoriously unpredictable time course and can occur with a median onset of 17-34 days after initiation of ICI therapy, although cases have been identified anywhere from 1 to 240 days from start of therapy (34,38-40). In our patient, we were able to collect blood at the time of diagnosis of the positive troponin I of 10 ng/ml (t=0) and track to day 65 after a full four-week course of glucocorticoids and resolution of clinical signs of myocarditis. […]

For C[C@]12C=CC(=O)C=C1CC[C@@H]1[C@@H]2C(=O)C[C@@]2(C)[C@H]1CC[C@]2(O)C(=O)CO [prednisone], the “resolution of cardiac biomarkers (troponin I)” value was ≤ 25 days.
